Reference: patent publication US20080096989A1, “Flame Retardant Expanded Polystyrene Foam Compositions” (ALBEMARLE CORPORATION, priority 2004, published 2008)

Assay: Thermal HBr Measurement Test (thermal stability)
Assay type: physicochemical
Conditions: heated about 15 minutes at about 220° C. under nitrogen; average of duplicate; lower = more thermally stable
Experimental: The thermal stability of N,2-3-dibromopropyl-4,5-dibromohexahydrophthalimde (“compound (I)”) used in accordance with the present invention was evaluated using the Thermal HBr Measurement Test.
First, a sample of from about 0.5 to about 1.0 g flame retardant was weighed into a three neck 50 mL round bottom flask. Teflon tubing was then attached to one of the openings in the flask. Nitrogen was fed into the flask through the Teflon tubing at a flow rate of about 0.5 SCFH. A small reflux condenser was attached to another opening on the flask. The third opening was plugged. An about 50 vol % solution of glycol in water at a temperature of about 85° C. was run through the reflux condenser. Viton tubing was attached to the top of the condenser and to a gas-scrubbing bottle. Two more bottles were attached in series to the first. All three bottles had about 90 mL of about 0.1 N NaOH solutions. After assembling the apparatus, the nitrogen was allowed to purge through the system for about 2 minutes. The round bottom flask was then placed into an oil bath at about 220° C. and the sample was heated for about 15 minutes. The flask was then removed from the oil bath and the nitrogen was allowed to purge for about 2 minutes. The contents of the three gas scrubbing bottles were transferred to a 600 mL beaker. The bottles and viton tubing were rinsed into the beaker. […]

O=C1C2CC(Br)C(Br)CC2C(=O)N1CC(Br)CBr (stereo not shown) [compound I, N,2-3-dibromopropyl-4,5-dibromohexahydrophthalimde]
HBr (ppm): 2,058 ppm
